Results reported in patent US20100300896A1, “Redox Molecules And Methods Of Making The Same” (BAYER HEALTHCARE LLC, priority 2009, published 2010).
Where two headings read alike, the source gives them in different places.

Columns and labels:
[1] = Voltammetric scan of the mediator: output current in response to input potential (glassy carbon WE, Ag/AgCl RE, platinum CE); assay type: physicochemical; settings: for redox potential: mediator 1 mg/mL
Excerpt: FIGS. 1A and 1B depict graphs illustrating output currents from mediator reduction in response to an input potential. The mediator was a composition including a 3:2 molar mixture of a first compound having the general formula (I), and a second compound having the general formula (II), where X is bromine and each compound is present as the disodium salt. A 5 mm glassy carbon electrode served as a working electrode (WE), Ag/AgCl as a reference electrode (RE), and platinum gauAge as a counter electrode (CE). In FIG. 1A, the mediator composition was present at a concentration of 1 mg/mL in a mixture containing 10 mM PBS buffer (pH 7.4), and the input potential was scanned between −200 mV and 200 mV vs. Ag/AgCl. In FIG. 1B, the mediator composition was present at a concentration of 1 mg/mL in a mixture containing 100 mM PBS (pH 7.0) and 100 mM NaCl buffer solution, and the input potential was scanned between −100 mV and 200 mV vs. Ag/AgCl. Referring to FIG. 1B, when the scan rate was less than 50 mV/s, the oxidative and reductive peak separation was around 30-40 mV. […] The redox potential of the mediator composition of FIGS. 1A and 1B was about −3 mV vs. Ag/AgCl in the 10 mM PBS buffer (pH 7.4), and was about 40 mV vs. Ag/AgCl in the mixture of 100 mM PBS (pH 7.0) and 100 mM NaCl buffer. These redox potentials are similar to that of the conventional mediator (E)-2-(3H-phenothiaAgine-3-ylideneamino)benAgene-1,4-disulfonic acid (Structure A), which is −50 mV vs. Ag/AgCl. FIG. 5A and FIG. 5B depict graphs illustrating output currents from mediator reduction in response to an input potential. The mediator was a compound having general formula (III), where X is bromine. A 5 mm glassy carbon electrode served as a WE, Ag/AgCl as a RE, and platinum gauAge as a CE. In FIG. 5A, the mediator was present at a concentration of 1 mg/mL in a mixture containing 10 mM PBS buffer (pH 7.4), and the input potential was scanned between −200 mV and 200 mV vs. Ag/AgCl. […]

[2] = Open circuit voltage between working electrode and reference electrode; assay type: physicochemical; settings: 10 mM PBS buffer
Description: The open circuit voltage between the WE and the RE also was measured for the mediator composition of FIGS. 1A and 1B. The open circuit voltage is a measure of the redox state of the mediator.
The open circuit voltage between the WE and the RE also was measured for the compound having general formula (III), where X is bromine.

glucose dehydrogenase = assay: Output current from mediator in a mixture containing glucose and glucose dehydrogenase; assay type: biochemical; settings: mediator 3 mg/mL, 10 mM PBS buffer (pH 7.4), input potential 100 mV vs. Ag/AgCl, glucose 0 to 1.2 mM
Description: FIG. 2 depicts a graph illustrating output currents from mediator oxidation in response to an input potential when the mediator is in a mixture containing glucose and glucose dehydrogenase. The mediator was the composition used in FIGS. 1A and 1B. A 5 mm glassy carbon electrode served as a WE, Ag/AgCl as a RE, and platinum gauAge as a CE. The composition was present at a concentration of 2 mg/mL in a mixture containing 10 mM PBS buffer (pH 7.4), and the input potential was 100 mV vs. Ag/AgCl. […] Thus, the composition may be used as a mediator for the redox reaction correlating the glucose concentration in a sample with an electrical signal. Referring to FIG. 2, a compound having general formula (III), where X is bromine, can be used as a mediator for the redox reaction correlating the glucose concentration of a sample with an electrical signal. A 5 mm glassy carbon electrode served as a WE, Ag/AgCl as a RE, and platinum gauAge as a CE. The mediator was present at a concentration of 3 mg/mL in a mixture containing 10 mM PBS buffer (pH 7.4), and the input potential was 100 mV vs. Ag/AgCl. […] Thus, the composition may be used as a mediator for the redox reaction correlating the glucose concentration in a sample with an electrical signal.

[3] = conventional mediator, buffer not stated; cited from earlier work

Row | redox potential ([1]; 10 mM PBS buffer (pH 7.4)) | redox potential ([1]; mixture of 100 mM PBS (pH 7.0) and 100 mM NaCl buffer) | oxidative and reductive peak separation ([1]; scan rate less than 50 mV/s, 100 mM PBS (pH 7.0) and 100 mM NaCl buffer, 1 mg/mL) | open circuit voltage [2] | SMILES | output current vs glucose concentration (glucose dehydrogenase) | redox potential [3]
1 | about 3 mV vs. Ag/AgCl | about 15 mV vs. Ag/AgCl | 30-40 mV | 111 mV vs. Ag/AgCl | O=S(=O)(O)c1ccc(S(=O)(=O)O)c(N=c2cc3sc4ccccc4nc-3cc2OCCCCCCCCBr)c1 [2-(2-(8-bromooctanoxy)-3H-phenothiaAgin-3-ylideneamino)benAgene-1,4-disulfonic acid] | output current increased as the glucose concentration increased from 0 to 1.2 mM | –
2 | – | – | – | – | O=S(=O)(O)c1ccc(S(=O)(=O)O)c(/N=c2\ccc3nc4ccccc4sc-3c2)c1 [Structure A, (E)-2-(3H-phenothiaAgine-3-ylideneamino)benAgene-1,4-disulfonic acid] | – | −50 mV vs. Ag/AgCl
